Test results as given in patent US20220023289A1, “Application Of Pyrroloquinoline Quinone In Preparation Of Medicament Used For Preventing And Treating Acute Altitude Sickness And Acute Altitude Hypoxia Injury” (priority 2018, published 2022).

What was measured:
[1] = test system: rats exposed to acute altitude hypoxia; assay: Renal function in rats exposed to acute altitude hypoxia; format: in vivo, Wistar rat; conditions: for Creatinine / Uric acid: 0.11 g/kg
Description: (§1) Select healthy Wistar rats weight 160-200 g, half female and half male. After feeding for 3 days, these Wistar rats are randomly divided into ten groups according to their body weight, each group has 16±2 rats. The groups are divided as follows: five groups of the hypoxic exposure drug test group, respectively, are given 0.91 mg/kg, 1.83 mg/kg, 3.66 mg/kg, 7.31 mg/kg, and 14.63 mg/kg drugs. […] After continuous intragastric administration for 7 days, the animals in the hypoxic exposure group are simultaneously put into the decompression and hypoxia compound experimental chamber, the hatch is closed, and the pressure is reduced at a speed of 10 m/s. After being raised to an altitude of 6000 m and maintained for 8 hours, the speed in 10 m/s drops is reduced to normal altitude, open the hatch, and then take out the animal, collect blood samples (after standing for 1 hour, the supernatant is centrifuged and stored at −20° C.), and liver tissue samples. Detection indicator includes body weight, serum blood glucose, ATP, lactic acid, endothelin, nitric oxide, SOD, CO, MDA related to oxidative stress, and total protein, albumin, triglycerides, total cholesterol, high-density lipoprotein cholesterol, low-density lipoprotein cholesterol, glutamic pyruvic transaminase, total bilirubin, gluamic oxalacetic transaminase, serum urea nitrogen, creatinine, uric acid, lactate dehydrogenase, creatine kinase, α-hydroxybutyrate dehydrogenase; liver ATP, hepatic glycogen. Except that the formal oxygen control animal group is not put into the decompression and hypoxia compound experimental chamber, other experimental conditions and detection indicators are the same.
(§2) Measure blood glucose, total protein, albumin, triglycerides, total cholesterol, high-density lipoprotein cholesterol, low-density lipoprotein cholesterol, glutamic-pyruvic transaminase, total bilirubin, glutamic oxalacetic transaminase, serum urea nitrogen, creatinine, uric acid, lactate dehydrogenase, creatine kinase, α-hydroxybutyrate dehydrogenase, blood homocysteine by using an automatic blood biochemical analyzer.

[2] = test system: mice exposed to high altitude hypoxia; assay: Exhaustive swimming experiment in mice exposed to high altitude hypoxia (6000 m); format: in vivo, Kunming mice
From the text: Select healthy male Kunming mice weight 18-22 g.

[3] = test system: rats exposed to acute altitude hypoxia; assay: Protein metabolism in rats exposed to acute altitude hypoxia; format: in vivo, Wistar rat; conditions: for albumin (second column): 0.11 g/kg
Description: as §1, §2

[4] = test system: rats exposed to acute altitude hypoxia; assay: Endothelial function (serum endothelin-1, nitric oxide) in rats exposed to acute altitude hypoxia; format: in vivo, Wistar rat; conditions: for Endothelin-1 / Nitric oxide: 0.11 g/kg
From the text: This method uses nitrate reductase specificity reduce NO^3− to NO^2−, and then determine the level of its concentration by displaying shades of color. Operate according to the kit instructions, measure the absorbance of each tube at a wavelength of 550 nm, and then calculate the content of nitric oxide of the sample to be tested according to the formula. To the coated microwells pre-coated with rat endothelin (endothelin-1) capture antibody, add in sequence specimens, standards, and HRP-labeled detection antibody, and then incubate and wash thoroughly. Use a substrate TMB for color development. TMB is converted into blue under the catalysis of peroxidase and converted into the final yellow color under the action of acid. The color intensity is positively correlated with the rat endothelin (endothelin-1) in the sample.

[5] = test system: rats exposed to acute altitude hypoxia; assay: Serum homocysteine in rats exposed to acute altitude hypoxia; format: in vivo, Wistar rat; conditions: for Serum homocysteine: 0.11 g/kg
Description: as §1, §2

[6] = test system: rats exposed to acute altitude hypoxia; assay: Myocardial enzyme activity in rats exposed to acute altitude hypoxia; format: in vivo, Wistar rat; conditions: for Creatine Kinase / Lactate dehydrogenase / α-hydroxybutyrate dehydrogenase: 0.11 g/kg
Description: as §1, §2

[7] = test system: rats exposed to acute altitude hypoxia; assay: Blood glucose in rats exposed to acute altitude hypoxia (6000 m, 8 h, after 7 days intragastric); format: in vivo, Wistar rat; conditions: for Blood sugar: 0.11 g/kg
Description: as §1, §2

[8] = test system: rats exposed to acute altitude hypoxia; assay: Liver function of rats exposed to acute altitude hypoxia; format: in vivo, Wistar rat
Description: as §1, §2

[9] = female rats, hypoxia, 0.11 g/kg
[10] = female rats, normoxia, 0.11 g/kg

For `CC(=O)Nc1nnc(S(N)(=O)=O)s1` [Acetazolamide, reference compound], the Creatinine ([1]; female rats, hypoxia) was 18.78 ± 1.96 µmol/L, the Uric acid ([1]; female rats, hypoxia) was 77.80 ± 17.31 µmol/L and the “effect on serum urea nitrogen and creatinine values” ([1]; female rats, normoxia) was “increasing”. The “effect on serum uric acid level” value ([1]; female rats, normoxia) was “reducing”, the Creatinine ([1]; female rats, normoxia) was 19.67 ± 0.32 µmol/L and the Uric acid ([1]; female rats, normoxia) was 82.00 ± 15.10 µmol/L. The “effect on serum urea nitrogen and creatinine value” ([1]; hypoxia exposed female rats) was “increasing”, the “effect on serum uric acid level” value ([1]; hypoxia exposed female rats) was “decreasing” and the “effect on serum creatinine” value ([1]; hypoxia exposed male rats) was “no significant effect”. The “effect on serum urea nitrogen content” value ([1]; hypoxia exposed male rats) was “increase”, the “effect on serum uric acid level” value ([1]; hypoxia exposed male rats) was “can reduce” and the Creatinine ([1]; male rats, hypoxia) was 25.01 ± 2.48 µmol/L. The Uric acid ([1]; male rats, hypoxia) was 81.86 ± 11.05 µmol/L, the “start time of exhaustion swimming death” value ([2]; male mice, 6000 m) was “died earlier” and the “Exhausted swimming survival time” value ([2]; male mice, 6000 m, 7 days, acetazolamide positive drug control (0.16 g/kg)) was 130.64 ± 79.46 min. The “increasing rate of survival time” value ([2]; male mice, 6000 m, acetazolamide positive drug control (0.16 g/kg)) was 2.10%, the “effect on survival time after exhausting swimming / working ability under hypoxia” value ([2]; mice under low oxygen exposure) was “no effect” and the “effect on serum total protein content” value ([3]; female rats) was “has been not found”. For the same compound, the “albumin (second column)” value ([3]; female rats, hypoxia) was 29.18 ± 1.68 g/L, the “effect on serum albumin content” value ([3]; female rats, normoxia) was “can slightly increase” and the “albumin (second column)” value ([3]; female rats, normoxia) was 32.13 ± 0.45 g/L. The “effect on serum total protein content” value ([3]; male rats exposed to hypoxia) was “is not found”, the “albumin (second column)” value ([3]; male rats, hypoxia) was 27.87 ± 1.140 g/L and the “effect on serum endothelin-1 and nitric oxide” value ([4]; female rats after acute hypoxia exposure) was “no significant effects”. The Endothelin-1 ([4]; female rats, hypoxia) was 55.66 ± 6.39 ng/mL, the Nitric oxide ([4]; female rats, hypoxia) was 4.96 ± 3.13 µmol/L and the “effect on nitric oxide content” value ([4]; female rats, normoxia) was “no significant effects”. The “effect on serum endothelin-1 content” value ([4]; female rats, normoxia) was “can reduce”, the Endothelin-1 ([4]; female rats, normoxia) was 36.18 ± 2.31 ng/mL and the Nitric oxide ([4]; female rats, normoxia) was 4.08 ± 0.88 µmol/L. For the same compound, the “effect on serum endothelin-1 and nitric oxide” value ([4]; hypoxia exposed male rats) was “slight reduction”, the Endothelin-1 ([4]; male rats, hypoxia) was 42.41 ± 0.7 ng/mL and the Nitric oxide ([4]; male rats, hypoxia) was 3.52 ± 1.25 µmol/L. The Serum homocysteine ([5]; female rats, hypoxia) was 9.54 ± 0.98 µmol/L, the “effect on serum homocysteine” value ([5]; female rats, normoxia) was “no significant effects” and the Serum homocysteine ([5]; female rats, normoxia) was 9.33 ± 1.16 µmol/L. For the same compound, the “effect on serum homocysteine” value ([5]; hypoxia exposed female rats) was “no significant effects”, the “effect on serum homocysteine” value ([5]; hypoxia exposed male rats) was “have been not found” and the Serum homocysteine ([5]; male rats, hypoxia) was 11.13 ± 1.67 µmol/L. For the same compound, the “Creatine Kinase” value ([6]; female rats, hypoxia) was 503.40 ± 137.62 U/L, the Lactate dehydrogenase ([6]; female rats, hypoxia) was 534.00 ± 179.23 U/L and the α-hydroxybutyrate dehydrogenase ([6]; female rats, hypoxia) was 230.20 ± 75.49 U/L. The “effect on serum lactic dehydrogenase, creatine kinase, α-hydroxybutyrate dehydrogenase activity” value ([6]; female rats, normoxia) was “no significant effects”, the “Creatine Kinase” value ([6]; female rats, normoxia) was 697.67 ± 222.15 U/L and the Lactate dehydrogenase ([6]; female rats, normoxia) was 998.67 ± 285.56 U/L. The α-hydroxybutyrate dehydrogenase ([6]; female rats, normoxia) was 430.33 ± 134.10 U/L, the “effect on serum lactic dehydrogenase, creatine kinase, α-hydroxybutyrate dehydrogenase activity” value ([6]; hypoxia exposed female rats) was “no significant effects” and the “effect on serum lactate dehydrogenase, creatine kinase, α-hydroxybutyrate dehydrogenase” value ([6]; hypoxia exposed male rats) was “has not been found”. For the same compound, the “Creatine Kinase” value ([6]; male rats, hypoxia) was 352.43 ± 138.11 U/L, the Lactate dehydrogenase ([6]; male rats, hypoxia) was 303.86 ± 174.67 U/L and the α-hydroxybutyrate dehydrogenase ([6]; male rats, hypoxia) was 126.29 ± 67.51 U/L. For the same compound, the “effect on blood glucose” value ([7]; acute hypoxia exposed female rats) was “no significant effects”, the Blood sugar ([7]; female rats, hypoxia) was 7.63 ± 0.76 mmol/L and the “effect on blood glucose” value ([7]; female rats, normoxia) was “lowering the blood glucose”. The Blood sugar ([7]; female rats, normoxia) was 7.18 ± 0.39 mmol/L, the “effect on blood glucose level” value ([7]; male rats) was “no significant effects” and the Blood sugar ([7]; male rats, hypoxia) was 8.87 ± 1.24 mmol/L. For the same compound, the Glutamic oxalacetic transaminase [8, 9] was 73.20 ± 11.19 U, the Glutamic-pyruvic transaminase [8, 9] was 28.40 ± 2.30 U and the “effect on glutamic-pyruvic transaminase and glutamic oxalacetic transaminase” value ([8]; female rats, normoxia) was “no significant effects”. For the same compound, the Glutamic oxalacetic transaminase [8, 10] was 102.33 ± 11.02 U, the Glutamic-pyruvic transaminase [8, 10] was 41.67 ± 10.97 U and the “effect on glutamic pyruvic transaminase and total bilirubin” value ([8]; hypoxia exposed male rats) was “no significant effects”. The “effect on serum glutamic oxalacetic transaminase” value ([8]; hypoxia exposed male rats) was “increasing”, the Glutamic oxalacetic transaminase ([8]; male rats, hypoxia, 0.11 g/kg) was 77.57 ± 6.80 U and the Glutamic-pyruvic transaminase ([8]; male rats, hypoxia, 0.11 g/kg) was 44.00 ± 3.56 U. It also gave a Total bilirubin ([8]; male rats, hypoxia, 0.11 g/kg) of 0.15 ± 0.16 µmol/L.
